# From patent US20210386841A1, “COMPOSITIONS FOR TRANSFECTING mRNA INTO A CELL AND THEIR APPLICATIONS” (POLYPLUS TRANSFECTION, priority 2018, published 2021)
# Key:
# [1] = system: THP-1 human peripheral blood monocyte cells; assay: eGFP mRNA transfection, THP-1 cells (96-well); assay type: cell-based; settings: ratio 1/2, 150 ng eGFP mRNA, 24 h
# Procedure: THP-1 (ATCC® TIB-202™) human peripheral blood monocyte cells were grown in RPMI-1640 with 10% FBS and supplemented with 10 mM HEPES buffer, 1 mM sodium pyruvate, 0.05 mM 2-mercaptoethanol, 2 mM glutamine, 100 U/mL of penicillin and 100 μg/mL of streptomycin at 37° C. in a 5% CO2 in air atmosphere.
# (§1) mRNA eGFP (996 nt, reference L-6101) from TriLink Technologies was used for the in vitro transfection experiments and expressed enhanced green fluorescent protein which is a common reporter gene (eGFP). This mRNA was capped with a Cap 0, polyadenylated and modified with 5-methylcytidine and pseudo-uridine.
# (§2) One day before transfection, Caco-2, THP-1 or BJ Cells were seeded at 10 000, 25 000, or 5 000 cells per well (96-well plate format), respectively, in 125 μL of their respective complete medium and incubated at 37° C. in a 5% CO2 in air atmosphere. For Jurkat cells, 25 000 cells were seeded per well prior transfection. On the day of transfection 150 ng of mRNA was added in 11.5 μL of 5% glucose solution, mixed with a vortex and incubated for 5 minutes at rt. Then, 1 μL of 1 mM cationic liposomal formulation was added onto the diluted mRNA, mixed with a vortex and incubated for 15 minutes at rt. The formulated mRNA solution (12.5 μL) was added into the well and the plate was incubated for 24 hours at 37° C. in a 5% CO2 in air atmosphere.
# (§3) For the GFP expression analysis, the cell culture medium was removed for the adherent cells and 50 μL of trypsin-EDTA (1×, Lonza) was added and the plate was incubated for 5 minutes at 37° C. 150 μL of complete medium were added to neutralize the trypsin, and the GFP expression was analysed (2000 events) by flow cytometry (Exc 488 nm, Em 520 nm) using a Guava easyCyte 6HT cytometer (Millipore).
# (§4) All these new liposomal formulations (Table 1) were assessed to deliver mRNA expressing an enhanced green fluorescent protein (eGFP) as reporter gene in order to determine the gene expression and the transfection efficiency (Table 2). mRNA eGFP capped with a Cap 0 in 5′-end, polyadenylated in 3′-end and modified with 5-methylcytidine and pseudo-uridine was used in the transfection assay. The transfection assay was performed as described in the Experimental section where 150 ng of mRNA eGFP was complexed with 1 μL of 1 mM cationic liposomal formulations in a 5% glucose solution before the addition on the cells. One day post-transfection, the eGFP expression was analyzed by flow cytometry to determine the percentage of transfection. Four different cell lines were used in this assay from easy to transfect cells to hard to transfect cells with plasmid DNA, including human BJ skin fibroblast cells, THP-1 human peripheral blood monocytes, Caco-2 human colon epithelial cells and Jurkat Clone E6-1 human T lymphoblast cells, respectively.
# [2] = system: Jurkat Clone E6-1 human T lymphoblast cells; assay: eGFP mRNA transfection, Jurkat cells (96-well); assay type: cell-based; settings: 150 ng eGFP mRNA, 24 h
# Procedure: Jurkat Clone E6-1 (ATCC® TIB-152™) human T lymphoblast cells were grown in RPMI-1640 (LONZA) with 10% of FBS (EUROBIO) and supplemented with 2 mM Glutamine (LONZA), 100 U/mL of penicillin and 100 μg/mL of streptomycin (LONZA) at 37° C. in a 5% CO2 in air atmosphere.
# as §1, §2, §3, §4
# [3] = system: BJ human skin fibroblast cells; assay: eGFP mRNA transfection, BJ cells (96-well); assay type: cell-based; settings: co-lipid DOPE, ratio 1/2; 150 ng eGFP mRNA; 24 h
# Procedure: BJ (ATCC® CRL-2522™) human skin fibroblast cells were grown in Eagle's Minimum Essential Medium with 10% FBS and supplemented with 1% non-essential amino acids, 1 mM sodium pyruvate, 2 mM glutamine and 100 U/mL of penicillin and 100 μg/mL of streptomycin at 37° C. in a 5% CO2 in air atmosphere.
# as §1, §2, §3, §4
# [4] = system: Caco-2 human colon epithelial cells; assay: eGFP mRNA transfection, Caco-2 cells (96-well); assay type: cell-based; settings: co-lipid DOPE, ratio 1/2; 150 ng eGFP mRNA; 24 h
# Procedure: Caco-2 (ATCC® HTB-37™) human colon epithelial cells were grown in DMEM 4.5 g/L glucose with 20% FBS supplemented with 1% non-essential amino acids, 1 mM sodium pyruvate, 2 mM glutamine and 100 U/mL of penicillin and 100 μg/mL of streptomycin at 37° C. in a 5% CO2 in air atmosphere.
# as §1, §2, §3, §4
# [5] = system: BJ, THP-1, Caco-2 and Jurkat cells; assay: eGFP mRNA transfection, overall statements on the four cell lines; assay type: cell-based, human; settings: formulated with co-lipid DOPE or DPyPE
# Procedure: as §1, §2, §3, §4
# [6] = co-lipid DOPE, ratio compound/co-lipid 1/2, 1 μL of 1 mM formulation, flow cytometry
Transfection efficiency (eGFP %) CaCO2 [4],SMILES,Transfection efficiency (eGFP %) THP-1 ([1]; co-lipid DOPE),"Transfection efficiency (eGFP %) Jurkat [2, 6]",Transfection efficiency (eGFP %) BJ [3],transfection activity (in words) [5],Transfection efficiency (eGFP %) THP-1 ([1]; co-lipid DPyPE),"Transfection efficiency (eGFP %) Jurkat ([2]; co-lipid DPyPE, ratio 1/2)"
5-10%,"CCCCCCCCCCCCCCC(CCCCCCCCCCCCCC)[n+]1ccn(C)c1.[Cl-] [Compound W4.3, 1-methyl-3-(nonacosan-15-yl)-1H-imidazol-3-ium chloride]",30-40%,0-1%,50-60%,reduced transfection activity,,
5-10%,"CCCCCCCCCCCCCCCCC(CCCCCCCCCCCCCCCC)[n+]1ccn(C)c1.[Cl-] [Compound W5.3, 1-methyl-3-(tritriacontan-17-yl)-1H-imidazol-3-ium chloride]",50-60%,0-2%,60-70%,reduced transfection activity,,
75-80%,"CCCCCCCCCCCCCCCCCCC(CCCCCCCCCCCCCCCCCC)CCCCC(CCCCCCCCCCCCCCCCCC)[n+]1ccn(C)c1.[Cl-] (centres unmarked) [Compound W13.7, 1-methyl-3-(24-octadecyldotetracontan-19-yl)-1H-imidazol-3-ium chloride]",80-85%,10-20%,65-75%,,,
80-85%,"CCCCCCCC/C=C\CCCCCCCCC(CCCCC(CCCCCCCCCCCCCC)CCCCCCCCCCCCCC)[n+]1ccn(CCCC)c1.[Cl-] (centres unmarked) [Compound W20.7, 1-butyl-3-(24-tetradecyloctatriacont-9-en-19-yl)-1H-imidazol-3-ium chloride]",80-90%,60-70%,90-95%,,65-80%,50-60%
45-55%,"CCCCCCCCCCCCCCCCCCC(CCCCC(CCCCCCCCCCCCCC)CCCCCCCCCCCCCC)[n+]1ccn(CCO)c1.[Cl-] (centres unmarked) [Compound W25.7, 1-(2-hydroxyethyl)-3-(24-tetradecyloctatriacontan-19-yl)-1H-imidazol-3-ium chloride]",80-85%,25-35%,90-95%,without really affecting the transfection activity,,
50-55%,"CCCCCCCCCCCCCCC(CCCCCCCCCCCCCC)CCCCC(CCCCCCCCCCCCCC)[n+]1ccn(CCO)c1.[Cl-] (centres unmarked) [Compound W26.7, 1-(2-hydroxyethyl)-3-(20-tetradecyltetratriacontan-15-yl)-1H-imidazol-3-ium chloride]",70-80%,10-15%,90-95%,without really affecting the transfection activity,,
65-75%,"CCCCCCCC/C=C\CCCCCCCCC(CCCCC(CCCCCCCCCCCCCC)CCCCCCCCCCCCCC)[n+]1ccn(CC)c1.[Cl-] (centres unmarked) [Compound W27.7, 1-ethyl-3-(24-tetradecyloctatriacont-9-en-19-yl)-1H-imidazol-3-ium chloride]",40-50%,5-10%,90-95%,without really affecting the transfection activity,,
40-45%,"CCCCCCCCCCCCCCCCCCC(CCCC(CCCCCCCCCCCCCC)CCCCCCCCCCCCCC)[n+]1ccn(C)c1.[Cl-] (centres unmarked) [Compound W28.7, 1-methyl-3-(15-tetradecylheptatriacontan-19-yl)-1H-imidazol-3-ium chloride]",80-85%,15-25%,90-95%,without really affecting the transfection activity,,
,"CCCCCCCCCCCCCCCCC(CCCCCCCCCCCCCCCC)CCC[n+]1ccn(C)c1 [Compound W29.5, 1-methyl-3-(4-hexadecylicosyl)-1H-imidazol-3-ium chloride]",30-40%,10-15%,,without really affecting the transfection activity,,
5-10%,"CCCCCCCCCCCCCCCCCCC(CCCCCCCCCCCCCCCCCC)n1cc[n+](C)c1.[Cl-] [MONI, 1-Methyl-3-(1-Octadecyl-Nonadecyl)-3H-Imidazol-1-ium chloride, reference compound]",30-40%,5-10%,50-60%,,,
